Test results reported in ChEMBL document CHEMBL1150709, “Irisones A and B: two new isoflavones from Iris missouriensis” (1987).

System: P388
Assay: Cytotoxicity against mouse P388 cells
Format: functional
Settings: read-out: ED50 (the source's name)

| Structure (SMILES) | EC50 |
| --- | --- |
| COc1ccccc1-c1coc2cc(O)c(OC)c(O)c2c1=O | > 50 µg/mL |
| O=c1c(-c2ccccc2O)coc2cc3c(c(O)c12)OCO3 [IRISONE B] | > 50 µg/mL |
| COc1ccccc1-c1coc2cc3c(c(O)c2c1=O)OCO3 [IRISONE A] | > 50 µg/mL |
